Type: physicochemical
Procedure: The solubility of the salts in water (see Table 3), methanol (see Table 4) and phosphate buffer (see Table 5) were tested.

## CC[C@H](C)[C@H](NC(=O)[C@H](CC(C)C)NC(=O)[C@H](Cc1c[nH]c2ccccc12)NC(=O)[C@H](CCC(N)=O)NC(=O)[C@@H](NC(=O)[C@H](Cc1ccccc1)NC(=O)[C@H](C)NC(=O)[C@H](CCCCNC(=O)COCCOCCNC(=O)COCCOCCNC(=O)CC[C@H](NC(=O)CCCCCCCCCCCCCCCCCCC(=O)O)C(=O)O)NC(=O)[C@H](CCC(N)=O)NC(=O)[C@H](C)NC(=O)[C@@H](NC(=O)[C@H](CCCCN)NC(=O)[C@H](CC(=O)O)NC(=O)[C@H](CC(C)C)NC(=O)C(C)(C)NC(=O)[C@@H](NC(=O)[C@H](CO)NC(=O)[C@H](Cc1ccc(O)cc1)NC(=O)[C@H](CC(=O)O)NC(=O)[C@H](CO)NC(=O)[C@@H](NC(=O)[C@H](Cc1ccccc1)NC(=O)[C@@H](NC(=O)CNC(=O)[C@H](CCC(=O)O)NC(=O)C(C)(C)NC(=O)[C@@H](N)Cc1ccc(O)cc1)[C@@H](C)O)[C@@H](C)O)[C@@H](C)CC)[C@@H](C)CC)C(C)C)C(=O)N[C@@H](C)C(=O)NCC(=O)NCC(=O)N1CCC[C@H]1C(=O)N[C@@H](CO)C(=O)N[C@@H](CO)C(=O)NCC(=O)N[C@@H](C)C(=O)N1CCC[C@H]1C(=O)N1CCC[C@H]1C(=O)N1CCC[C@H]1C(=O)N[C@@H](CO)C(N)=O [Acetic acid content - 1.06%]
  Solubility - in Water (descriptive term only): Practically insoluble in water

## CC[C@H](C)[C@H](NC(=O)[C@H](CC(C)C)NC(=O)[C@H](Cc1c[nH]c2ccccc12)NC(=O)[C@H](CCC(N)=O)NC(=O)[C@@H](NC(=O)[C@H](Cc1ccccc1)NC(=O)[C@H](C)NC(=O)[C@H](CCCCNC(=O)COCCOCCNC(=O)COCCOCCNC(=O)CC[C@H](NC(=O)CCCCCCCCCCCCCCCCCCC(=O)O)C(=O)O)NC(=O)[C@H](CCC(N)=O)NC(=O)[C@H](C)NC(=O)[C@@H](NC(=O)[C@H](CCCCN)NC(=O)[C@H](CC(=O)O)NC(=O)[C@H](CC(C)C)NC(=O)C(C)(C)NC(=O)[C@@H](NC(=O)[C@H](CO)NC(=O)[C@H](Cc1ccc(O)cc1)NC(=O)[C@H](CC(=O)O)NC(=O)[C@H](CO)NC(=O)[C@@H](NC(=O)[C@H](Cc1ccccc1)NC(=O)[C@@H](NC(=O)CNC(=O)[C@H](CCC(=O)O)NC(=O)C(C)(C)NC(=O)[C@@H](N)Cc1ccc(O)cc1)[C@@H](C)O)[C@@H](C)O)[C@@H](C)CC)[C@@H](C)CC)C(C)C)C(=O)N[C@@H](C)C(=O)NCC(=O)NCC(=O)N1CCC[C@H]1C(=O)N[C@@H](CO)C(=O)N[C@@H](CO)C(=O)NCC(=O)N[C@@H](C)C(=O)N1CCC[C@H]1C(=O)N1CCC[C@H]1C(=O)N1CCC[C@H]1C(=O)N[C@@H](CO)C(N)=O [Ammonium content- 0.25%]
  Solubility - in Water (descriptive term only): practically insoluble in water

— patent US20250019410A1, “PROCESS FOR THE PREPARATION OF TIRZEPATIDE OR PHARMACEUTICALLY ACCEPTABLE SALT THEREOF” (Sun Pharmaceutical Industries Ltd., priority 2021, published 2025)
